Laboratory results taken from patent US6660742B2, “Compositions and methods of the use thereof achiral analogues of CC-1065 and the duocarmycins” (priority 2000, dated 2003).
Like-named read-outs stand apart in the source and are kept apart here.

Columns and labels:
A549/ATCC = assay: cells; conditions: Homo sapiens, A549, 48 h
A498 = assay: NCI screen, A498 (Renal Cancer); assay type: cell-based, human
Method: (§1) The compounds of this invention were also tested against the panel of 60 human cancer cell lines at the National Cancer Institute, Bethesda, Md. […] The cytrotoxicity studies were conducted using a 48 hour exposure, and measuring the optical density of sulforhodamide B-derived color.

COLO 205 = assay: NCI screen, COLO 205 (Colon Cancer); assay type: cell-based, human
Method: as §1

HL-60(TB) = assay type: cell-based
[1] = system: K562 human chronic myeloid leukemia cells; assay: MTT cytotoxicity on K562 cells; assay type: cell-based; conditions: K562 cells
supercoil pBR322 DNA = assay: pBR322 strand nicking assay; assay type: biochemical
Text: When a compound is covalently bound to a purine-N3 in the minor groove of DNA, the adduct is thermally unstable. It is readily hydrolyzed to produce a DNA strand (2). Consequently, the formation of adenine-N3 (or guanine-N3) alkylation adducts can be detected by thermal conversion of supercoil pBR322 DNA (Form I) to nicked open […] DNA (Form II) as a result of the formation of single strand breaks. These two different forms of pBR322 DNA can then be separated by agarose gel electrophoresis, and the relative amounts of each form can be determined by densitometry of methylene blue stained gels (39). The supercoil form of pBR322 DNA is more compact than the open circular form, and as a result, moves further down the gel towards the positive electrode.
Solutions of the drugs dissolved in N,N-dimethylacetamide (DMA) were made at 0.10 mM concentrations, and were always stored in the refrigerator.
Tris buffer solution at pH 7.4 at 25° C. and 0.010 M was made from Tris HCl (0.661 g), Tris base (0.097 g) diluted to a 100 mL volume with distilled water. Then EDTA-Na2—2H2O (0.186 g) and KCl (3.72 g) were added to the Tris HCl solution and diluted to 500 mL volume with distilled water. A TBE solution was prepared from Carolina Lot #4020602 Electrophoresis buffer 20 times TBE diluted to a volume of three liters with deionized water. The agarose gel was prepared from agarose low EEO (0.32 g) dissolved in TBE buffer (40 mL) and heated in a microwave oven until dissolved.
The pBR322 DNA (100 μg/100 μL) from Pharmacia Biotech was in a buffer (10 mM Tris-HCl pH 7.5, and 1 mM EDTA). The DNA was prepared from plasmid DNA isolated from E. coli HB101 by the alkaline lysate procedure and was purified by Sepharcryl S-100 chromatography followed by CsCl-ethidium bromide centrifugation.
The alkylation samples were prepared by adding DNA (10 μL), Tris-EDTA KCl buffer (18 μL), and compound (2 μL) at 100 μM concentration to Eppendorf tubes. The samples were incubated at 40° C. for 40 h. The samples were removed then centrifuged for one minute. 10% SDS (sodium dodecylsulfate) (2 μL), 50% glycerol (5 μL), and bromophenol blue (2 μL) were added to the samples. The contents of the tubes were mixed with a Vortex mixer then centrifuged to consolidate the samples. The agarose gel was covered with TBE-buffer in the chamber. The samples were loaded onto the agarose gel and run at 40 V for three hours, or when the band were about three/fourths of the way down the gel.
The gel was removed and stained with methylene blue (45 min). At this time, the stained gel was placed in a water chamber overnight. The intensities of each band i.e. Form I and II were determined using densitometry.

[2] = system: MCF-7 (human breast cancer cells); assay: SRB cytotoxicity on MCF-7 cells; assay type: cell-based
Method: Cells were seeded in 96-well microtiter plates at densities of 1000 cells/well. The optimal seeding density was determined to ensure exponential growth in control wells throughout the experimental period and to obtain a linear relationship between absorbance at 492 nm and cell number when analyzed by the sulforhodamine B (SRB) assay (43). 24 hours after seeding the cells were incubated for 1 hour or continuously for 3 days with the drugs (concentration range 0.01 to 500 μM). The cells were washed once and then incubated in drug free medium for 6 days. At the end of the incubation cell growth was determined by the SRB assay, which quantifies viable cells by measuring their total cellular protein content. […] Similar studies were conducted against the growth of PC3 (human prostate cancer cells) and MCF-7 (human breast cancer cells).

[3] = Log10 Concentration −4.3, 48 hour exposure
[4] = Log10 Concentration −5.3, 48 hour exposure
[5] = Log10 Concentration −6.3, 48 hour exposure
[6] = Log10 Concentration −7.3, 48 hour exposure
[7] = Log10 Concentration −8.3, 48 hour exposure

Method for CCRF-CEM: as §1
Method for DU-145: as §1
Method for HS 578T: The compounds of this invention were also tested against the panel of 60 human cancer cell lines at the National Cancer Institute, Bethesda, Md. (44). The cytrotoxicity studies were conducted using a 48 hour exposure, and measuring the optical density of sulforhodamide B-derived color.
Method for K-562: as §1
Method for OVCAR-5: as §1
Method for SF-539: as §1
Method for SK-MEL-28: as §1
Method for U251: as §1

`COC(=O)c1[nH]c2c(O)cc(NC(=O)c3cc4cc(OC)c(OC)c(OC)c4[nH]3)c(CCCl)c2c1C(=O)OC` [Compound 22, Dimethyl 4-(2-chloroethyl)-7-hydroxy-5-(5,6,7-trimethoxyindole-2-carboxamido)indole-2,3-dicarboxylate] was tested, and the GI50 (A549/ATCC) was 0.135 µM, the CC50 (A549/ATCC; read-out: LC50) was > 50 µM and the TGI (A498; 48 hour exposure) was 5.15E−06 Molar. The “Percent Growth” value (A498; [3]) was −82%, the “Percent Growth” value (A498; [4]) was 1% and the “Percent Growth” value (A498; [5]) was 5%. The “Percent Growth” value (A498; [6]) was 98%, the “Percent Growth” value (A498; [7]) was 95% and the TGI (COLO 205; 48 hour exposure) was >5.00E−05 Molar. For the same compound, the “Percent Growth” value (COLO 205; [3]) was 20%, the “Percent Growth” value (COLO 205; [4]) was 23% and the “Percent Growth” value (COLO 205; [5]) was 31%. The “Percent Growth” value (COLO 205; [6]) was 88%, the “Percent Growth” value (COLO 205; [7]) was 95% and the TGI (HL-60(TB); 48 hour exposure) was >5.00E−05 Molar. For the same compound, the “Percent Growth” value (HL-60(TB); [3]) was 3%, the “Percent Growth” value (HL-60(TB); [4]) was 9% and the “Percent Growth” value (HL-60(TB); [5]) was 10%. For the same compound, the “Percent Growth” value (HL-60(TB); [6]) was 54% and the “Percent Growth” value (HL-60(TB); [7]) was 85%.
`O=C(Nc1cc(O)ccc1CCCl)c1cc2cc(NC(=O)c3cc4ccccc4o3)ccc2[nH]1` [Compound 1, 4-(2-Chloroethyl)-3-[5-(5-benzofuran-2-carboxamido)indole-2-carboxamido]phenol] gave an IC50 ([1]; continuous exposure (3 days), read-out: IC50 continuous exposure (3 days)) of 1.47 ± 0.8 µM, an IC50 ([1]; read-out: IC50 1 hour exposure, 1 hour exposure) of 12.1 ± 1.8 µM and a CC50 (SF-539) of 9 µM. The “Percent Growth” value (DU-145) was 53%, the GI50 (DU-145; DU-145) was 1.12 µM and the TGI (DU-145; DU-145) was 6.16E−06 Molar. The “Percent Growth” value (DU-145; DU-145, Log10 Concentration −4.0) was −96%, the “Percent Growth” value (DU-145; DU-145, Log10 Concentration −5.0) was −14% and the “Percent Growth” value (DU-145; DU-145, Log10 Concentration −7.0) was 104%. For the same compound, the “Percent Growth” value (DU-145; DU-145, Log10 Concentration −8.0) was 101%, the CC50 (CCRF-CEM) was > 100 µM and the CC50 (SR) was > 100 µM. The CC50 (OVCAR-5) was 20 µM, the “Percent Growth” value (OVCAR-5) was −29% and the GI50 (OVCAR-5; OVCAR-5) was 2.28 µM. For the same compound, the TGI (OVCAR-5; OVCAR-5) was 5.80E−06 Molar, the “Percent Growth” value (OVCAR-5; OVCAR-5, Log10 Concentration −4.0) was −99% and the “Percent Growth” value (OVCAR-5; OVCAR-5, Log10 Concentration −6.0) was 94%. The “Percent Growth” value (OVCAR-5; OVCAR-5, Log10 Concentration −7.0) was 95%, the “Percent Growth” value (OVCAR-5; OVCAR-5, Log10 Concentration −8.0) was 94% and the CC50 (U251) was 53.9 µM. For the same compound, the “Form I DNA (%)” value (supercoil pBR322 DNA) was 73 ± 2%, the “Form II DNA (%)” value (supercoil pBR322 DNA) was 27 ± 4% and the CC50 (SK-MEL-28) was 21.4 µM. For the same compound, the IC50 ([2]; continuous exposure, read-out: IC50 MCF-7 Continuous exposure) was 3.43 µM, the IC50 ([2]; read-out: IC50 MCF-7 1 hour exposure, 1 hour exposure) was > 50 µM and the CC50 (K-562) was > 100 µM. The CC50 (HS 578T) was > 100 µM.
